Bridges are numbered along the chain shown (N, C = ends). Where no end group is shown, it is not given here.
How the values were obtained:
BRIN-BD11 cells [1] = assay: Membrane potential, FLIPR membrane assay kit; assay type: cell-based, rat; conditions: for Membrane potential (AUC, x 10^3 RFU): 1 μM peptide, 5 min, mean ± SEM, n = 8
Description: (§1) Effects of esculentin-2CHa (1 μM) and its analogues on membrane potential and [Ca^2+]i in BRIN-BD11 cells over a period of 5 min were assessed using commercially available FLIPR membrane or calcium assay kit (Molecular Devices, USA) as previously described. Data were captured using a Flexstation 3 microplate reader equipped with automatic fluid transfer unit (Molecular Devices, USA).

[2] = tested on: BRIN-BD11 rat clonal β-cells; assay: In vitro insulin release from BRIN-BD11 cells; assay type: cell-based; conditions: 5.6 mM glucose; for BRIN-BD11 cells (Threshold concentration): minimum concentration producing a significant increase in rate of insulin release, 37°C
Description: (§2) In vitro insulin-releasing effects of esculentin-2CHa and its analogues were assessed using BRIN-BD11 rat clonal β-cells and mouse islets. In the first set of experiments, BRIN-BD11 cells were incubated with the peptides in the concentration range (1 pM– 3 μM) in Krebs-Ringer bicarbonate buffer containing 5.6 mM glucose for 20 min at 37°C as previously described [15–17]. Insulin-releasing effects were also assessed using buffer supplemented with 1.4 and 16.7mm glucose concentrations and with established modulators of insulin release as previously described [15–17]. In a second set of experiments, islets from NIH Swiss mice, isolated by collagenase digestion [18, 19], were incubated with a range of concentrations of esculentin-2CHa or its analogues (0.1 nM– 1 μM) for 1 h in Krebs-Ringer bicarbonate (KRB) buffer supplemented with 1.4, 5.6 or 16.7 mM glucose. Following test incubations, aliquots of buffer were retrieved and stored at -20°C for measurement of insulin by radioimmunoassay [20].

BRIN-BD11 cells [3] = assay: Intracellular calcium ([Ca2+]i), FLIPR calcium assay kit; assay type: cell-based, rat; conditions: for Intracellular Ca2+ (AUC, x 10^2 RFU): 1 μM peptide, 5 min, mean ± SEM, n = 8
Description: as §1

high fat fed mice = assay: Acute in vivo glucose tolerance and insulin release; set-up: species or system mouse; conditions: for Plasma glucose (AUC) / Plasma insulin (AUC): ip glucose 18 mmol/kg with peptide 75 nmol/kg, AUC 0-60 min, mean ± SEM, n = 8
Description: Male National Institutes of Health (NIH) Swiss mice (Harlan Ltd, UK) were housed separately in an air-conditioned room (22 ± 2°C) with relative humidity of 51 ± 5% and a 12-hour light: 12-hour dark cycle and maintained on a high fat diet containing 45% fat, 20% protein and 35% carbohydrate (total energy 19.5 kJ/g, Dietex International Ltd, Witham, UK) for 120 days. Mice maintained on standard rodent diet containing 10% fat, 30% protein and 60% carbohydrates (total energy 12.99 kJ/g) were used as controls. Both groups of animals were allowed food and water ad libitum. All animal experiments were carried out in accordance with the UK Animals (Scientific Procedures) Act 1986 and EU Directive 2010/63EU for animal experiments. The study was approved by University of Ulster Research Ethics Committee.
For acute in vivo studies, overnight fasted, high fat fed mice (n = 8) received an intraperitoneal injection of glucose alone (18 mmol/kg body weight) or in combination with esculentin-2CHa or its analogues (75 nmol/kg body weight). This peptide dose was selected on the basis of a pilot study that examined acute effects of different doses of esculentin-2CHa on glucose tolerance in lean mice. Blood samples were collected as described previously before injection and at times indicated in the Figures for the measurement of plasma glucose and insulin concentrations.
Pancreatic tissues were homogenized in 20 mM Tris-HCl, 150 mM NaCl, 1 mM EDTA, 1 mM EGTA and 0.5% Triton X 100; pH 7.5 as previously described. Blood samples (approximately 150 μl), collected from the cut tip of the tail vein of unanesthetized mice at intervals indicated in the Figures were used for blood glucose measurements and determination of plasma insulin as previously described. Blood glucose was measured using a hand-held Ascencia Contour meter (Bayer Healthcare, UK). Plasma and pancreatic insulin were determined by radioimmunoassay. Plasma and pancreatic glucagon contents were determined by ELISA using commercially available kit (Millipore, MA, USA). Plasma creatinine, alanine transaminase (ALT), aspartic acid transaminase (AST) and alkaline phosphatase (ALP) were measured using commercially available kits (Randox Laboratories, UK) as indicators of renal and liver function. Plasma triglyceride and cholesterol concentrations were measured using an automated clinical chemistry analyser (I-lab 650, and reagents purchased from Instrumentation Laboratory (Warrington, UK). The assay kit for cholesterol was obtained from Randox Laboratories (Antrim, UK). Estimation of LDL cholesterol concentrations was achieved using the Friedewald equation as described previously.

BRIN-BD11 cells [4] = conditions: 3 μM peptide (highest concentration); mean ± SEM, n = 8
Description: In vitro insulin-releasing effects of esculentin-2CHa and its analogues were assessed using BRIN-BD11 rat clonal β-cells and mouse islets. In the first set of experiments, BRIN-BD11 cells were incubated with the peptides in the concentration range (1 pM– 3 μM) in Krebs-Ringer bicarbonate buffer containing 5.6 mM glucose for 20 min at 37°C as previously described. Insulin-releasing effects were also assessed using buffer supplemented with 1.4 and 16.7mm glucose concentrations and with established modulators of insulin release as previously described. In a second set of experiments, islets from NIH Swiss mice, isolated by collagenase digestion, were incubated with a range of concentrations of esculentin-2CHa or its analogues (0.1 nM– 1 μM) for 1 h in Krebs-Ringer bicarbonate (KRB) buffer supplemented with 1.4, 5.6 or 16.7 mM glucose. Following test incubations, aliquots of buffer were retrieved and stored at -20°C for measurement of insulin by radioimmunoassay. In the experiments with BRIN-BD11 cells, the release of lactate dehydrogenase (LDH) was measured as an indicator of the integrity of the plasma membrane using commercially available CytoTox 96 non-radioactive cytotoxicity assay kit (Promega, Madison, WI, USA) according to the manufacturer’s recommended protocol.

[5] = tested on: islets from NIH Swiss mice; assay: In vitro insulin release from isolated mouse islets; assay type: cell-based; conditions: 16.7 mM glucose; for Stimulation of insulin release from islets, fold of basal: 1 μM, 1 h; for Mouse islets (Threshold concentration): insulin release, 1 h incubation, n = 8
Description: as §2

[6] = peptide 75 nmol/kg ip with glucose 18 mmol/kg

Row | Compound | Increase of membrane potential (BRIN-BD11 cells [1]; 30 mM) | Increase of insulin secretion, fold of basal ([2]; 10 mM, 20 min, n = 8) | Increase of intracellular Ca2+ (BRIN-BD11 cells [3]; 10 mM) | Plasma glucose (AUC) (high fat fed mice) | Plasma insulin (AUC) (high fat fed mice) | BRIN-BD11 cells (Threshold concentration) ([2]; 20 min, n = 8) | Membrane potential (AUC, x 10^3 RFU) (BRIN-BD11 cells [1]) | Intracellular Ca2+ (AUC, x 10^2 RFU) (BRIN-BD11 cells [3]) | LDH release (% of control) (BRIN-BD11 cells [4]) | Stimulation of insulin release from islets, fold of basal [5] | Mouse islets (Threshold concentration) [5] | Decrease of plasma glucose AUC versus glucose alone (high fat fed mice; [6]) | Increase in integrated plasma insulin response versus glucose alone (high fat fed mice; [6]) | Insulin-secretory response, fold of basal ([2]; 3 μM peptide, 20 min) | Stimulation of insulin response relative to that with esculentin-2CHa (high fat fed mice; [6]) | Stimulatory effect on insulin release at 3 μM compared with native peptide ([2]; 3 μM)
1 | [Cl-].[K+] [KCl, reference compound] | 5.2 fold | – | – | – | – | – | – | – | – | – | – | – | – | – | – | –
2 | C[C@H](N)C(=O)O [alanine, reference compound] | – | 7.3 fold | 4.6 fold | – | – | – | – | – | – | – | – | – | – | – | – | –
3 | GFSSIFRGVAKFASKGLGKDKAKLGVDLVACKISKQC (disulfide 31-37 (inferred)) [[L21K]Esculentin-2CHa, substituted analogue of esculentin-2CHa with increased cationicity] | – | – | – | 598.68±35.23^ΔΔ mmol/l.min | 131.12±14.25^Δ ng/ml.min | 10 pM | 7.78±0.31 x 10^3 RFU | 6.14±0.41 x 10^2 RFU | 100.6±2.0 % of control | 2.6 fold | 10 nM | – | – | – | – | –
4 | GFSSIFRGVAKFASKGLGKDLAKKGVDLVACKISKQC (disulfide 31-37 (inferred)) [[L24K]Esculentin-2CHa, substituted analogue of esculentin-2CHa with increased cationicity] | – | – | – | 662.25±32.14^ΔΔ mmol/l.min | 129.89±11.02^Δ ng/ml.min | 10 pM | 7.87±0.19 x 10^3 RFU | 6.28±0.62 x 10^2 RFU | 101.3±3.1 % of control | 2.3 fold | 10 nM | – | – | – | – | –
5 | GFSSIFRGVAKFASKGLGKDLAKLGVDLVACKISKQC (disulfide 31-37 (inferred)) [Esculentin-2CHa, frog skin host-defense peptide first isolated from Lithobates chiricahuensis; synthetic] | – | – | – | 463.99 ± 46.95 mmol·min/L | 165.05 ± 16.89 ng·min/mL | – | 8.01±0.28 x 10^3 RFU | 6.44±0.47 x 10^2 RFU | 102.7±1.1 % of control | 2.7 fold | 10 nM | 33% | 48% | 10.3 fold | – | –
6 | GFSSIFRGVAKFASKGLGKDLAKLGVDLVAKKISKQC [[C31K]Esculentin-2CHa, substituted analogue of esculentin-2CHa with increased cationicity] | – | – | – | 410.72 ± 29.25 mmol·min/L | 240.32±31.04 ^,ΔΔΔ ng/ml.min | 10 pM | 7.92±0.14 x 10^3 RFU | 6.32±0.72 x 10^2 RFU | 100.2±2.8 % of control | 3.3 fold | 0.1 nM | 40% | – | – | 2.4 fold | greater
7 | GFSSIFRGVAKFASKGLGKDLAKLGVDLVASKISKQS [[C31S,C37S]Esculentin-2CHa, analogue with Cys31 and Cys37 replaced by serine] | – | – | – | 618.65±86.0^ΔΔ mmol/l.min | 122.74±28.65^Δ ng/ml.min | 10 pM | 7.96±0.24 x 10^3 RFU | 6.55±0.36 x 10^2 RFU | 104.3±3.1 % of control | 2.6 fold | 1 nM | – | – | – | – | –
8 | GFSSIFRGVAKFASKGLGKKLAKLGVKLVACKISKQC (disulfide 31-37 (inferred)) [[D20K, D27K]Esculentin-2CHa, analogue with Asp20 and Asp27 replaced by L-Lysine] | – | – | – | 667.78±60.23^ΔΔ mmol/l.min | 122.96±16.76^Δ ng/ml.min | 100 pM | 7.85±0.32 x 10^3 RFU | 6.10±0.46 x 10^2 RFU | 102.5±2.6 % of control | 1.7 fold | 10 nM | – | – | – | – | –
9 | GLP-1: incretin hormone used as positive control for islet insulin release [reference compound] | – | – | – | – | – | – | – | – | – | 2.4 fold | – | – | – | – | – | –

— article PMC4626215, “Esculentin-2CHa-Related Peptides Modulate Islet Cell Function and Improve Glucose Tolerance in Mice with Diet-Induced Obesity and Insulin Resistance” (PLoS ONE, 2015)
